Assay results as given in patent publication US11180462B2, “Microbiocidal oxadiazole derivatives” (SYNGENTA PARTICIPATIONS AG, priority 2015, dated 2021).

Assays:
[1] = tested on: Puccinia recondita f. Sp. Tritici; experiment: Fungicidal activity against Puccinia recondita f. sp. tritici / wheat / leaf disc preventative (brown rust); type: in vivo; settings: foliar, 200 ppm in the applied formulation, wheat leaf segments, preventative, compared to untreated control leaf disks, read-out: disease control
Procedure, shortened: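 Percent disease control relative to untreated check segments is scored once disease develops, 7 to 9 days after application. Wheat cv. Kanzler segments receive compound spray (200 ppm in formulation) one day before spore inoculation, then sit at 19° C. and 75% rh under 12 h light/12 h dark.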

[2] = tested on: Glomerella lagenarium (Colletotrichum lagenarium); experiment: Fungicidal activity against Glomerella lagenarium (Colletotrichum lagenarium) liquid culture / cucumber / preventative (anthracnose); type: cell-based; settings: Colletotrichum orbiculare; 20 ppm in the applied formulation; liquid culture (PDB), growth inhibition measured photometrically after 3 to 4 days; compared to untreated control; read-out: disease control
Procedure, shortened: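 Percent activity against the untreated check was derived from photometric growth measurements made 2 to 7 days after conidia in potato dextrose broth were combined with compound at 20 ppm. Cultures were kept dark at 24 °C and 96% humidity.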

[3] = tested on: Puccinia recondita f. Sp. Tritici; experiment: Fungicidal activity against Puccinia recondita f. sp. tritici / wheat / leaf disc curative (brown rust); type: in vivo; settings: foliar, 24 h, 200 ppm in the applied formulation, wheat leaf segments, curative (applied 1 day after inoculation), compared to untreated control leaf disks, read-out: disease control
Procedure, shortened: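 Curative leaf-segment test: compound diluted in water applied 1 day after spore inoculation of cv. Kanzler wheat segments on agar. Conditions 19° C, 75% RH, 12 h/12 h light cycle. Read-out: % disease control relative to untreated check, 6 to 8 days after application.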

COCC1(N(C)C(=O)N(C)Cc2ccc(-c3noc(C(F)(F)F)n3)cc2)CC1 [Compound 3.76, 1-[1-(methoxymethyl)-cyclopropyl]-1,3-dimethyl-3-[[4-[5-(trifluoromethyl)-1,2,4-oxadiazol-3-yl]phenyl]methyl]urea]
≥ 80%: pest or weed control at 200 ppm [1] | inhibition of growth at 20 ppm [2] | pest or weed control at 200 ppm [3]

C#CCN(C)C(=O)N(C)Cc1ccc(-c2noc(C(F)(F)F)n2)cc1 [Compound 3.77, 1,3-dimethyl-1-prop-2-ynyl-3-[[4-[5-(trifluoromethyl)-1,2,4-oxadiazol-3-yl]phenyl]methyl]urea]
≥ 80%: pest or weed control at 200 ppm [1] | inhibition of growth at 20 ppm [2] | pest or weed control at 200 ppm [3]

C=CCN(C)C(=O)N(C)Cc1ccc(-c2noc(C(F)(F)F)n2)cc1 [Compound 3.78, 1-allyl-1,3-dimethyl-3-[[4-[5-(trifluoromethyl)-1,2,4-oxadiazol-3-yl]phenyl]methyl]urea]
≥ 80%: pest or weed control at 200 ppm [1] | inhibition of growth at 20 ppm [2] | pest or weed control at 200 ppm [3]

CC(C)N(C)C(=O)N(C)Cc1ccc(-c2noc(C(F)(F)F)n2)cc1 [Compound 3.79, 1-isopropyl-1,3-dimethyl-3-[[4-[5-(trifluoromethyl)-1,2,4-oxadiazol-3-yl]phenyl]methyl]urea]
≥ 80%: pest or weed control at 200 ppm [1] | inhibition of growth at 20 ppm [2] | pest or weed control at 200 ppm [3]

C#CCN(C(=O)N(C)Cc1ccc(-c2noc(C(F)(F)F)n2)cc1)C1CC1 [Compound 3.80, 1-cyclopropyl-3-methyl-1-prop-2-ynyl-3-[[4-[5-(trifluoromethyl)-1,2,4-oxadiazol-3-yl]phenyl]methyl]urea]
≥ 80%: pest or weed control at 200 ppm [1] | inhibition of growth at 20 ppm [2] | pest or weed control at 200 ppm [3]

CCN(CC1CC1)C(=O)N(C)Cc1ccc(-c2noc(C(F)(F)F)n2)cc1 [Compound 3.81, 1-(cyclopropylmethyl)-1-ethyl-3-methyl-3-[[4-[5-(trifluoromethyl)-1,2,4-oxadiazol-3-yl]phenyl]methyl]urea]
≥ 80%: pest or weed control at 200 ppm [1] | inhibition of growth at 20 ppm [2] | pest or weed control at 200 ppm [3]

CN(Cc1ccc(-c2noc(C(F)(F)F)n2)cc1)C(=O)N(C)C1CCC1 [Compound 3.82, 1-cyclobutyl-1,3-dimethyl-3-[[4-[5-(trifluoromethyl)-1,2,4-oxadiazol-3-yl]phenyl]methyl]urea]
≥ 80%: pest or weed control at 200 ppm [1] | inhibition of growth at 20 ppm [2] | pest or weed control at 200 ppm [3]

CN(Cc1ccc(-c2noc(C(F)(F)F)n2)cc1)C(=O)N(C)CC1CC1 [Compound 3.83, 1-(cyclopropylmethyl)-1,3-dimethyl-3-[[4-[5-(trifluoromethyl)-1,2,4-oxadiazol-3-yl]phenyl]methyl]urea]
≥ 80%: pest or weed control at 200 ppm [1] | inhibition of growth at 20 ppm [2] | pest or weed control at 200 ppm [3]

COCCN(CCOC)C(=O)N(C)Cc1ccc(-c2noc(C(F)(F)F)n2)cc1 [Compound 3.84, 1,1-bis(2-methoxyethyl)-3-methyl-3-[[4-[5-(trifluoromethyl)-1,2,4-oxadiazol-3-yl]phenyl]methyl]urea]
≥ 80%: pest or weed control at 200 ppm [1] | inhibition of growth at 20 ppm [2] | pest or weed control at 200 ppm [3]

CCN(Cc1ccc(-c2noc(C(F)(F)F)n2)cc1)C(=O)N(C)CCOC [Compound 3.85, 1-ethyl-3-(2-methoxyethyl)-3-methyl-1-[[4-[5-(trifluoromethyl)-1,2,4-oxadiazol-3-yl]phenyl]methyl]urea]
≥ 80%: pest or weed control at 200 ppm [1] | inhibition of growth at 20 ppm [2] | pest or weed control at 200 ppm [3]

CCN(Cc1ccc(-c2noc(C(F)(F)F)n2)cc1)C(=O)N1CCCO1 [Compound 3.87, N-ethyl-N-[[4-[5-(trifluoromethyl)-1,2,4-oxadiazol-3-yl]phenyl]methyl]-isoxazolidine-2-carboxamide]
≥ 80%: pest or weed control at 200 ppm [1] | inhibition of growth at 20 ppm [2] | pest or weed control at 200 ppm [3]

CCN(Cc1ccc(-c2noc(C(F)(F)F)n2)cc1)C(=O)N(C)CC#N [Compound 3.88, 1-(cyanomethyl)-3-ethyl-1-methyl-3-[[4-[5-(trifluoromethyl)-1,2,4-oxadiazol-3-yl]phenyl]methyl]urea]
≥ 80%: pest or weed control at 200 ppm [1] | inhibition of growth at 20 ppm [2] | pest or weed control at 200 ppm [3]

CCN(Cc1ccc(-c2noc(C(F)(F)F)n2)cc1)C(=O)N(CC)C1CC1 [Compound 3.89, 1-cyclopropyl-1,3-diethyl-3-[[4-[5-(trifluoromethyl)-1,2,4-oxadiazol-3-yl]phenyl]methyl]urea]
≥ 80%: pest or weed control at 200 ppm [1] | inhibition of growth at 20 ppm [2] | pest or weed control at 200 ppm [3]

CCN(Cc1ccc(-c2noc(C(F)(F)F)n2)cc1)C(=O)N(C)C1CC1 [Compound 3.90, 1-cyclopropyl-3-ethyl-1-methyl-3-[[4-[5-(trifluoromethyl)-1,2,4-oxadiazol-3-yl]phenyl]methyl]urea]
≥ 80%: pest or weed control at 200 ppm [1] | inhibition of growth at 20 ppm [2] | pest or weed control at 200 ppm [3]

CCN(Cc1ccc(-c2noc(C(F)(F)F)n2)cc1)C(=O)N(C)C1COC1 [Compound 3.91, 1-ethyl-3-methyl-3-(oxetan-3-yl)-1-[[4-[5-(trifluoromethyl)-1,2,4-oxadiazol-3-yl]phenyl]methyl]urea]
≥ 80%: pest or weed control at 200 ppm [1] | inhibition of growth at 20 ppm [2] | pest or weed control at 200 ppm [3]

CCOC(=O)CN(C)C(=O)N(CC)Cc1ccc(-c2noc(C(F)(F)F)n2)cc1 [Compound 3.92, ethyl 2-[[ethyl-[[4-[5-(trifluoromethyl)-1,2,4-oxadiazol-3-yl]phenyl]methyl]-carbamoyl]-methyl-amino]acetate]
≥ 80%: pest or weed control at 200 ppm [1] | inhibition of growth at 20 ppm [2] | pest or weed control at 200 ppm [3]

CCN(Cc1ccc(-c2noc(C(F)(F)F)n2)cc1)C(=O)N1CCCC1 [Compound 3.93, N-ethyl-N-[[4-[5-(trifluoromethyl)-1,2,4-oxadiazol-3-yl]phenyl]methyl]-pyrrolidine-1-carboxamide]
≥ 80%: pest or weed control at 200 ppm [1] | inhibition of growth at 20 ppm [2] | pest or weed control at 200 ppm [3]

CCCN(C)C(=O)N(CC)Cc1ccc(-c2noc(C(F)(F)F)n2)cc1 [Compound 3.94, 1-ethyl-3-methyl-3-propyl-1-[[4-[5-(trifluoromethyl)-1,2,4-oxadiazol-3-yl]phenyl]methyl]urea]
≥ 80%: pest or weed control at 200 ppm [1] | inhibition of growth at 20 ppm [2] | pest or weed control at 200 ppm [3]

CCN(Cc1ccc(-c2noc(C(F)(F)F)n2)cc1)C(=O)N(C)C1(COC)CC1 [Compound 3.95, 1-ethyl-3-[1-(methoxymethyl)-cyclopropyl]-3-methyl-1-[[4-[5-(trifluoromethyl)-1,2,4-oxadiazol-3-yl]phenyl]methyl]urea]
≥ 80%: pest or weed control at 200 ppm [1] | inhibition of growth at 20 ppm [2] | pest or weed control at 200 ppm [3]

C=CCN(C)C(=O)N(CC)Cc1ccc(-c2noc(C(F)(F)F)n2)cc1 [Compound 3.97, 1-allyl-3-ethyl-1-methyl-3-[[4-[5-(trifluoromethyl)-1,2,4-oxadiazol-3-yl]phenyl]methyl]urea]
≥ 80%: pest or weed control at 200 ppm [1] | inhibition of growth at 20 ppm [2] | pest or weed control at 200 ppm [3]

CCN(Cc1ccc(-c2noc(C(F)(F)F)n2)cc1)C(=O)N(C)C(C)C [Compound 3.98, 1-ethyl-3-isopropyl-3-methyl-1-[[4-[5-(trifluoromethyl)-1,2,4-oxadiazol-3-yl]phenyl]methyl]urea]
≥ 80%: pest or weed control at 200 ppm [1] | inhibition of growth at 20 ppm [2] | pest or weed control at 200 ppm [3]

C#CCN(C(=O)N(CC)Cc1ccc(-c2noc(C(F)(F)F)n2)cc1)C1CC1 [Compound 3.99, 1-cyclopropyl-3-ethyl-1-prop-2-ynyl-3-[[4-[5-(trifluoromethyl)-1,2,4-oxadiazol-3-yl]phenyl]methyl]urea]
≥ 80%: pest or weed control at 200 ppm [1] | inhibition of growth at 20 ppm [2] | pest or weed control at 200 ppm [3]

CCN(Cc1ccc(-c2noc(C(F)(F)F)n2)cc1)C(=O)N(C)C1CCC1 [Compound 3.101, 1-cyclobutyl-3-ethyl-1-methyl-3-[[4-[5-(trifluoromethyl)-1,2,4-oxadiazol-3-yl]phenyl]methyl]urea]
≥ 80%: pest or weed control at 200 ppm [1] | inhibition of growth at 20 ppm [2] | pest or weed control at 200 ppm [3]

CCN(Cc1ccc(-c2noc(C(F)(F)F)n2)cc1)C(=O)N(CCOC)CCOC [Compound 3.102, 1-ethyl-3,3-bis(2-methoxyethyl)-1-[[4-[5-(trifluoromethyl)-1,2,4-oxadiazol-3-yl]phenyl]methyl]urea]
≥ 80%: pest or weed control at 200 ppm [1] | inhibition of growth at 20 ppm [2] | pest or weed control at 200 ppm [3]
